Measured values as given in patent US20140094424A1, “MICROBICIDAL COMPOSITIONS AND METHODS OF PRODUCTION USE THEREOF” (priority 2011, published 2014).

Tests used:
Gram positive rods (S) = assay: MBC (minimum bactericidal concentration) test in Wash NEXT reagent; format: cell-based
Description: (§1) The stock organisms were thawed and subbed prior to beginning the MBC test. Molds were subbed to SDA plates one week before, and the bacteria were subbed to TAT agar plates 24 hours prior to the start of the test. All plates were incubated at 32 degrees C.
(§2) Each bacterial organism was inoculated into 40 ml sterile saline in a centrifuge tube to create a density of MacFarland #1. Two serial dilutions of 1:100 were then made, resulting in 10^−2 and 10^−4 concentrations. Each dilution was vortexed before it was sampled, and sterile Eppendorf pipette tips were used to make each transfer. The 10^−4 dilution was spiral plated to yield the initial inoculum concentration.
(§3) MBC trays were set up with the prepared test reagent. Using a Matrix pipettor, 100 μl aliquots of reagent were distributed into the wells, diluting the amount of preservative from 100% to 10% increments, using unpreserved reagent as the diluent. In one row, 100% non-preserved reagent acted as a positive control and served as a benchmark for a full mat of growth. In well #12H, 100 μl unpreserved reagent was pipetted, and this well was not inoculated with organisms, as it served as the negative control. Once all of the trays were prepared, the prepared bacteria/mold suspensions were poured into the MBC inoculating trays. These were placed onto the reagent trays, and 0.01 ml inoculum was introduced into the 100 μl of reagent in each well.
(§4) This was done by dipping a sterile cotton swab into each well, and absorbing all of the liquid in the well. The swab was rolled onto a TAT agar plate ensuring that the entire swab touches the agar. Plates ware incubated at 32 degrees C. for 48 hours to 7 days, depending on the organism. Observations for growth were performed by a scoring matrix using + for a full mat, +/− for some growth, a numerical value for an actual colony count, and—for no growth.
(§5) Below are tables that contain the data obtained in Example 1. The MBC test is scored by (+) indicating a full grown mat of organisms, equivalent to the organisms in the unpreserved reagent. (+/−) indicates there is some kill evident disturbing that mat or bringing the quantities down to an almost countable level. An actual number is the actual number of colonies growing at that concentration of preservative. (−) indicates no growth found. The MBC trays were stored at room temperature for the entire test.
(§6) The materials and methods and analysis of the MBC test were the same as in Example 1.

Pseudomonas putida (K) = assay: as above; format: cell-based
Description: as §1, §2, §3, §4, §5, §6

SMILES: [N-]=[N+]=[N-] [Sodium Azide, sodium azide]
- MBC test growth score (Gram positive rods (S); 10% preservative, 8 hour): +
- MBC test growth score (Gram positive rods (S); 10% preservative, 24 hour): +
- MBC test growth score (Gram positive rods (S); 10% preservative, 48 hour): +
- MBC test growth score (Gram positive rods (S); 10% preservative, 72 hour): +
- MBC test growth score (Gram positive rods (S); 10% preservative, 7 day): +
- MBC test growth score (Gram positive rods (S); 10% preservative, 14 day): +
- MBC test growth score (Gram positive rods (S); 20% preservative, 8 hour): +
- MBC test growth score (Gram positive rods (S); 20% preservative, 24 hour): +
- MBC test growth score (Gram positive rods (S); 20% preservative, 48 hour): +
- MBC test growth score (Gram positive rods (S); 20% preservative, 72 hour): +
- MBC test growth score (Gram positive rods (S); 20% preservative, 7 day): +
- MBC test growth score (Gram positive rods (S); 20% preservative, 14 day): +
- MBC test growth score (Gram positive rods (S); 30% preservative, 8 hour): +
- MBC test growth score (Gram positive rods (S); 30% preservative, 24 hour): +
- MBC test growth score (Gram positive rods (S); 30% preservative, 48 hour): +
- MBC test growth score (Gram positive rods (S); 30% preservative, 72 hour): +
- MBC test growth score (Gram positive rods (S); 30% preservative, 7 day): +
- MBC test growth score (Gram positive rods (S); 30% preservative, 14 day): +
- MBC test growth score (Gram positive rods (S); 40% preservative, 8 hour): +
- MBC test growth score (Gram positive rods (S); 40% preservative, 24 hour): +
- MBC test growth score (Gram positive rods (S); 40% preservative, 48 hour): +
- MBC test growth score (Gram positive rods (S); 40% preservative, 72 hour): +
- MBC test growth score (Gram positive rods (S); 40% preservative, 7 day): +
- MBC test growth score (Gram positive rods (S); 40% preservative, 14 day): +
- MBC test growth score (Gram positive rods (S); 50% preservative, 8 hour): +
- MBC test growth score (Gram positive rods (S); 50% preservative, 24 hour): +
- MBC test growth score (Gram positive rods (S); 50% preservative, 48 hour): +
- MBC test growth score (Gram positive rods (S); 50% preservative, 72 hour): +
- MBC test growth score (Gram positive rods (S); 50% preservative, 7 day): +
- MBC test growth score (Gram positive rods (S); 50% preservative, 14 day): +
- MBC test growth score (Gram positive rods (S); 60% preservative, 8 hour): +
- MBC test growth score (Gram positive rods (S); 60% preservative, 24 hour): +
- MBC test growth score (Gram positive rods (S); 60% preservative, 48 hour): +
- MBC test growth score (Gram positive rods (S); 60% preservative, 72 hour): +
- MBC test growth score (Gram positive rods (S); 60% preservative, 7 day): +
- MBC test growth score (Gram positive rods (S); 60% preservative, 14 day): +
- MBC test growth score (Gram positive rods (S); 70% preservative, 8 hour): +
- MBC test growth score (Gram positive rods (S); 70% preservative, 24 hour): +
- MBC test growth score (Gram positive rods (S); 70% preservative, 48 hour): +
- MBC test growth score (Gram positive rods (S); 70% preservative, 72 hour): +
- MBC test growth score (Gram positive rods (S); 70% preservative, 7 day): +
- MBC test growth score (Gram positive rods (S); 70% preservative, 14 day): +
- MBC test growth score (Gram positive rods (S); 80% preservative, 8 hour): +
- MBC test growth score (Gram positive rods (S); 80% preservative, 24 hour): +
- MBC test growth score (Gram positive rods (S); 80% preservative, 48 hour): +
- MBC test growth score (Gram positive rods (S); 80% preservative, 72 hour): +
- MBC test growth score (Gram positive rods (S); 80% preservative, 7 day): +
- MBC test growth score (Gram positive rods (S); 80% preservative, 14 day): +
- MBC test growth score (Gram positive rods (S); 90% preservative, 8 hour): +
- MBC test growth score (Gram positive rods (S); 90% preservative, 24 hour): +
- MBC test growth score (Gram positive rods (S); 90% preservative, 48 hour): +
- MBC test growth score (Gram positive rods (S); 90% preservative, 72 hour): +
- MBC test growth score (Gram positive rods (S); 90% preservative, 7 day): +
- MBC test growth score (Gram positive rods (S); 90% preservative, 14 day): +
- MBC test growth score (Gram positive rods (S); 100% preservative, 8 hour): +
- MBC test growth score (Gram positive rods (S); 100% preservative, 24 hour): +
- MBC test growth score (Gram positive rods (S); 100% preservative, 48 hour): +
- MBC test growth score (Gram positive rods (S); 100% preservative, 72 hour): +
- MBC test growth score (Gram positive rods (S); 100% preservative, 7 day): +
- MBC test growth score (Gram positive rods (S); 100% preservative, 14 day): +
- total kill at % preservative (MBC) (Gram positive rods (S); at 14 days, listed as Na Azide): No kill @ 100%
- MBC test growth score (Pseudomonas putida (K); 10% preservative, 8 hour): +
- MBC test growth score (Pseudomonas putida (K); 10% preservative, 24 hour): +
- MBC test growth score (Pseudomonas putida (K); 10% preservative, 48 hour): +
- MBC test growth score (Pseudomonas putida (K); 10% preservative, 72 hour): +
- MBC test growth score (Pseudomonas putida (K); 20% preservative, 8 hour): +
- MBC test growth score (Pseudomonas putida (K); 20% preservative, 24 hour): +
- MBC test growth score (Pseudomonas putida (K); 20% preservative, 48 hour): +
- MBC test growth score (Pseudomonas putida (K); 20% preservative, 72 hour): +
- MBC test growth score (Pseudomonas putida (K); 30% preservative, 8 hour): +
- MBC test growth score (Pseudomonas putida (K); 30% preservative, 24 hour): +
- MBC test growth score (Pseudomonas putida (K); 30% preservative, 48 hour): +
- MBC test growth score (Pseudomonas putida (K); 30% preservative, 72 hour): +
- MBC test growth score (Pseudomonas putida (K); 40% preservative, 8 hour): +
- MBC test growth score (Pseudomonas putida (K); 40% preservative, 24 hour): +
- MBC test growth score (Pseudomonas putida (K); 40% preservative, 48 hour): +
- MBC test growth score (Pseudomonas putida (K); 40% preservative, 72 hour): +
- MBC test growth score (Pseudomonas putida (K); 50% preservative, 8 hour): +
- MBC test growth score (Pseudomonas putida (K); 50% preservative, 24 hour): +
- MBC test growth score (Pseudomonas putida (K); 50% preservative, 48 hour): +
- MBC test growth score (Pseudomonas putida (K); 50% preservative, 72 hour): +
- MBC test growth score (Pseudomonas putida (K); 60% preservative, 8 hour): +
- MBC test growth score (Pseudomonas putida (K); 60% preservative, 24 hour): +
- MBC test growth score (Pseudomonas putida (K); 60% preservative, 48 hour): +
- MBC test growth score (Pseudomonas putida (K); 60% preservative, 72 hour): +
- MBC test growth score (Pseudomonas putida (K); 70% preservative, 8 hour): +
- MBC test growth score (Pseudomonas putida (K); 70% preservative, 24 hour): +
- MBC test growth score (Pseudomonas putida (K); 70% preservative, 48 hour): +
- MBC test growth score (Pseudomonas putida (K); 70% preservative, 72 hour): +
- MBC test growth score (Pseudomonas putida (K); 80% preservative, 8 hour): +
- MBC test growth score (Pseudomonas putida (K); 80% preservative, 24 hour): +
- MBC test growth score (Pseudomonas putida (K); 80% preservative, 48 hour): +
- MBC test growth score (Pseudomonas putida (K); 80% preservative, 72 hour): +
- MBC test growth score (Pseudomonas putida (K); 90% preservative, 8 hour): +
- MBC test growth score (Pseudomonas putida (K); 90% preservative, 24 hour): +
- MBC test growth score (Pseudomonas putida (K); 90% preservative, 48 hour): +
- MBC test growth score (Pseudomonas putida (K); 90% preservative, 72 hour): +
- MBC test growth score (Pseudomonas putida (K); 100% preservative, 8 hour): +
- MBC test growth score (Pseudomonas putida (K); 100% preservative, 24 hour): +
- MBC test growth score (Pseudomonas putida (K); 100% preservative, 48 hour): +
- MBC test growth score (Pseudomonas putida (K); 100% preservative, 72 hour): +
- total kill at % preservative (MBC) (Pseudomonas putida (K); at 72 hours, listed as Na Azide): No kill @ 100%
